{"source": "PubChem BioAssay (NCI)", "assay_in_all_cases": "growth of human tumour cells (NCI), 48 h", "key": {"[1]": {"tested_on": "NCI-H226 lung"}, "[2]": {"tested_on": "KM12 colon"}, "[3]": {"tested_on": "K-562 leukemia"}, "[4]": {"tested_on": "OVCAR-5 ovarian"}, "[5]": {"tested_on": "SR leukemia"}, "[6]": {"tested_on": "HCT-15 colon"}, "[7]": {"tested_on": "DU-145 prostate"}, "[8]": {"tested_on": "NCI/ADR-RES ovarian"}, "[9]": {"tested_on": "PC-3 prostate"}, "[10]": {"tested_on": "EKVX NSCLC"}, "[11]": {"tested_on": "SF-295 CNS"}, "[12]": {"tested_on": "IGROV1 ovarian"}, "[13]": {"tested_on": "HCT-116 colon"}, "[14]": {"tested_on": "CAKI-1 renal"}, "[15]": {"tested_on": "MOLT-4 leukemia"}, "[16]": {"tested_on": "U251 CNS"}, "[17]": {"tested_on": "HOP-62 NSCLC"}, "[18]": {"tested_on": "UACC-257 melanoma"}, "[19]": {"tested_on": "HT29 colon"}, "[20]": {"tested_on": "A498 renal"}, "[21]": {"tested_on": "UO-31 renal"}, "[22]": {"tested_on": "SK-MEL-5 melanoma"}, "[23]": {"tested_on": "HS 578T breast"}, "[24]": {"tested_on": "OVCAR-3 ovarian"}, "[25]": {"tested_on": "SK-OV-3 ovarian"}, "[26]": {"tested_on": "MDA-MB-231 breast"}, "[27]": {"tested_on": "786-0 renal"}, "[28]": {"tested_on": "OVCAR-8 ovarian"}, "[29]": {"tested_on": "NCI-H460 lung"}, "[30]": {"tested_on": "LOX IMVI melanoma"}}, "note": "Where “and” joins values, the source holds several entries; their conditions need not be identical. Equal values may be shown once.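 Protocol summary: plate cells (96-well), add compound at 5 concentrations, incubate 48 h, interpolate endpoints linearly. Abbreviation: GI50, concentration required for 50% inhibition of growth. Definition used: TGI = concentration required for complete inhibition of growth.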"}
{"smiles": "O=C(Nc1ccc(Cl)c(Cl)c1)Nc1ccc(Cl)c(Cl)c1", "values": [{"measurement": "TGI", "setting": "[1]", "result": "15.2 µM and 15.8 µM"}, {"measurement": "GI50", "setting": "[2]", "result": "3.04 µM and 2.52 µM"}, {"measurement": "TGI", "setting": "[2]", "result": "11.6 µM and 6.99 µM"}, {"measurement": "GI50", "setting": "[3]", "result": "3.39 µM and 1.97 µM"}, {"measurement": "TGI", "setting": "[3]", "result": "19.8 µM and 9.9 µM"}, {"measurement": "GI50", "setting": "[4]", "result": "2.74 µM and 4.27 µM"}, {"measurement": "TGI", "setting": "[4]", "result": "7.53 µM and 17.6 µM"}, {"measurement": "GI50", "setting": "[5]", "result": "2.7 µM and 2.26 µM"}, {"measurement": "TGI", "setting": "[5]", "result": "10.9 µM and 6.66 µM"}, {"measurement": "GI50", "setting": "[6]", "result": "2.9 µM and 3.01 µM"}, {"measurement": "TGI", "setting": "[6]", "result": "11.9 µM and 11.2 µM"}, {"measurement": "GI50", "setting": "[7]", "result": "4.03 µM and 4.34 µM"}, {"measurement": "TGI", "setting": "[7]", "result": "14.4 µM and 16.2 µM"}, {"measurement": "GI50", "setting": "[8]", "result": "3.03 µM and 2.7 µM"}, {"measurement": "TGI", "setting": "[8]", "result": "12.9 µM and 14 µM"}, {"measurement": "GI50", "setting": "[9]", "result": "2.82 µM and 1.78 µM"}, {"measurement": "TGI", "setting": "[9]", "result": "12.3 µM and 9.82 µM"}, {"measurement": "GI50", "setting": "[10]", "result": 2.36, "unit": "µM"}, {"measurement": "TGI", "setting": "[10]", "result": 11.1, "unit": "µM"}, {"measurement": "GI50", "setting": "[11]", "result": "2.3 µM and 1.84 µM"}, {"measurement": "TGI", "setting": "[11]", "result": "6.93 µM and 5.39 µM"}, {"measurement": "GI50", "setting": "[12]", "result": "4.2 µM and 3.36 µM"}, {"measurement": "TGI", "setting": "[12]", "result": "22.2 µM and 10.5 µM"}, {"measurement": "GI50", "setting": "[13]", "result": "2.85 µM and 2.1 µM"}, {"measurement": "TGI", "setting": "[13]", "result": "11 µM and 7.41 µM"}, {"measurement": "GI50", "setting": "[14]", "result": "2.6 µM and 1.94 µM"}, {"measurement": "TGI", "setting": "[14]", "result": "9.96 µM and 4.59 µM"}, {"measurement": "GI50", "setting": "[15]", "result": "2.64 µM and 2.31 µM"}, {"measurement": "TGI", "setting": "[15]", "result": "10.2 µM and 6.6 µM"}, {"measurement": "GI50", "setting": "[16]", "result": "2.67 µM and 1.77 µM"}, {"measurement": "TGI", "setting": "[16]", "result": "11.2 µM and 5.14 µM"}, {"measurement": "GI50", "setting": "[17]", "result": "3.02 µM and 5.73 µM"}, {"measurement": "TGI", "setting": "[17]", "result": "11.4 µM and 31.2 µM"}, {"measurement": "GI50", "setting": "[18]", "result": "2.39 µM and 2.05 µM"}, {"measurement": "TGI", "setting": "[18]", "result": "6.96 µM and 5.85 µM"}, {"measurement": "GI50", "setting": "[19]", "result": "3.27 µM and 2.43 µM"}, {"measurement": "TGI", "setting": "[19]", "result": "12.9 µM and 6.82 µM"}, {"measurement": "TGI", "setting": "[20]", "result": "2.79 µM and 5.18 µM"}, {"measurement": "GI50", "setting": "[21]", "result": "2.25 µM and 2.74 µM"}, {"measurement": "TGI", "setting": "[21]", "result": "7.78 µM and 8.91 µM"}, {"measurement": "GI50", "setting": "[22]", "result": "1.74 µM and 1.77 µM"}, {"measurement": "TGI", "setting": "[22]", "result": "3.35 µM and 3.18 µM"}, {"measurement": "GI50", "setting": "[23]", "result": "3.29 µM and 2.08 µM"}, {"measurement": "TGI", "setting": "[23]", "result": "19.3 µM and 6.88 µM"}, {"measurement": "GI50", "setting": "[24]", "result": "3.03 µM and 1.66 µM"}, {"measurement": "TGI", "setting": "[24]", "result": "10.9 µM and 5.9 µM"}, {"measurement": "GI50", "setting": "[25]", "result": "3.39 µM and 3.82 µM"}, {"measurement": "TGI", "setting": "[25]", "result": "11.6 µM and 15.9 µM"}, {"measurement": "GI50", "setting": "[26]", "result": "1.63 µM and 1.73 µM"}, {"measurement": "TGI", "setting": "[26]", "result": "3.79 µM and 3.7 µM"}, {"measurement": "GI50", "setting": "[27]", "result": "3.79 µM and 3.21 µM"}, {"measurement": "TGI", "setting": "[27]", "result": "14.4 µM and 13 µM"}, {"measurement": "GI50", "setting": "[28]", "result": "3.12 µM and 2.54 µM"}, {"measurement": "TGI", "setting": "[28]", "result": "14.1 µM and 9.83 µM"}, {"measurement": "GI50", "setting": "[29]", "result": "2.85 µM and 2.24 µM"}, {"measurement": "TGI", "setting": "[29]", "result": "10.6 µM and 8.59 µM"}, {"measurement": "GI50", "setting": "[30]", "result": "2.26 µM and 2.95 µM"}, {"measurement": "TGI", "setting": "[30]", "result": "4.94 µM and 10.3 µM"}]}
